Data taken from patent US20220120732A1, “TREATMENT OF DISEASES WITH MULTIMERIC PEPTIDES” (Ramot at Tel-Aviv University Ltd., priority 2019, published 2022).
Bridges are numbered along the chain shown (N, C = ends). Roman numbers before positions name the chains, in order. Where no end group is shown, it is not given here.

System: normal stroma cells
Assay: Cell density, patient-derived stromal cells with autologous PBMC and C24D
Assay type: cell-based, human
Details: autologous PBMCs + C24D; FIGS. 5A-B
Excerpt: Patient-derived tumor primary culture medium: Medium D: DMEM/F12 (1:1, v/v) supplemented with 10% FBS and 1% antibiotics/antimycotic (100×. Medium M: Medium 171 supplemented with 1% MEGS (100×), and 1% antibiotics/antimycotics. Medium DB: mixed from medium D and medium M (1:1, v/v).
Tumor biopsies, all from different patients, were collected after obtaining the patients' consent and were transported to the laboratory. Excess adipose tissue was pared off the tumor samples, following which the samples were sliced into small fragments (approximately 1-2 mm^2) by using a scalpel. The fragments were seeded per 10 cm^2 Petri dishes in DB medium. The Petri dishes were incubated at 37° C. with 5% CO2 and monitored daily to record the time of cell appearance and the cell morphology. The medium was replaced every 3 days. Approximately two weeks after primary culture incubation, cells were trypsinized and cultured in Petri dishes according to the below protocol.
Day 1: 4×10^5 tumor cells from the cell line or tumor and stroma cells derived from patient's biopsies were incubated in the respective growth medium in 6 well plates overnight or Petri dishes. Day 2: 3 hours prior to addition of PBMC of healthy female donors or from autologous patients, DMEM medium was changed to RPMI medium. […]

I: CGHHLLRPRRRKRPHSIPTPILIFRSP / II: CGHHLLRPRRRKRPHSIPTPILIFRSP (disulfide I:1-II:1) [C24D]
effect on normal stroma cells of the same patient: no effect
